Source: patent US12077537B2 (Gilead Sciences, Inc., priority 2020, dated 2024)

Tested on: HIV-IIIb
Assay: Antiviral assay in MT4 cells
Type: cell-based
Conditions: Human immunodeficiency virus 1, MT4, 120 h; MT-4 cells mixed with HIV-IIIb at m.o.i. 0.003; 5 days at 37° C.; CellTiter-Glo luminescence; 50% decrease in signal, a measure of HIV-1 replication
Experimental: Antiviral Assay in MT4 Cells For the antiviral assay, 40 μL of a concentration required to achieve a final effective 1× test concentration of 3-fold serially diluted compound in culture medium with 10% FBS was added to each well of a 384-well plate (10 concentrations) in quadruplicate. MT-4 cells were next mixed with HIV-IIIb at an m.o.i of 0.003 for 1 hour, after which time 35 μL of virus/cell mixture (2000 cells) was immediately added to each well containing 40 μL of diluted compound. The plates were then incubated at 37° C. for 5 days. After 5 days of incubation, 25 μl of 2× concentrated CellTiter-Glom Reagent (catalog #G7571, Promega Biosciences, Inc., Madison, WI) was added to each well containing MT-4 cells. Cell lysis was carried out by incubating at room temperature for 10 min and then chemiluminescence was read.

SMILES | EC50 [nM]
CN(C)CCNc1nc2nc(C(Cc3cc(F)cc(F)c3)NC(=O)Cn3nc(C(F)F)c4c3C(F)(F)CCC4(F)F)c(-c3ccc(F)c(C#N)c3)cc2s1 (stereo not drawn) [Compound 21, N-(1-(6-(3-cyano-4-fluorophenyl)-2-((2-(dimethylamino)ethyl)amino)thiazolo[4,5-b]pyridin-5-yl)-2-(3,5-difluorophenyl)ethyl)-2-(3-(difluoromethyl)-4,4,7,7-tetrafluoro-4,5,6,7-tetrahydro-1H-indazol-1-yl)acetamide] | ≥ 53200
CC(C)(O)C#CC1(Cl)Nc2nc(C(Cc3cc(F)cc(F)c3)NC(=O)Cn3nc(C(F)F)c4c3C(F)(F)CCC4(F)F)c(-c3ccc(F)c(C(N)=O)c3)cc2S1 (stereo not drawn) [Compound 22, 5-(2-chloro-5-(1-(2-(3-(difluoromethyl)-4,4,7,7-tetrafluoro-4,5,6,7-tetrahydro-1H-indazol-1-yl)acetamido)-2-(3,5-difluorophenyl)ethyl)-2-(3-hydroxy-3-methylbut-1-yn-1-yl)-2,3-dihydrothiazolo[4,5-b]pyridin-6-yl)-2-fluorobenzamide] | 184
O=C(Cn1nc(C(F)F)c2c1C(F)(F)[C@@H]1C[C@H]21)N[C@@H](Cc1cc(F)cc(F)c1)c1ccc2sc(-c3ccc4c(c3)C(=O)NC4)nc2n1 [Compound 23-1, 2-((3bS,4aR)-3-(difluoromethyl)-5,5-difluoro-3b,4,4a,5-tetrahydro-1H-cyclopropa[3,4]cyclopenta[1,2-c]pyrazol-1-yl)-N—((S)-2-(3,5-difluorophenyl)-1-(2-(3-oxoisoindolin-5-yl)thiazolo[4,5-b]pyridin-5-yl)ethyl)acetamide] | 1930
CSc1nc2nc([C@H](Cc3cc(F)cc(F)c3)NC(=O)Cn3nc(C(F)F)c4c3C(F)(F)[C@@H]3C[C@H]43)c(-c3ccc4c(c3)C(=O)NC4)cc2s1 [Compound 23-2, 2-((3bS,4aR)-3-(difluoromethyl)-5,5-difluoro-3b,4,4a,5-tetrahydro-1H-cyclopropa[3,4]cyclopenta[1,2-c]pyrazol-1-yl)-N—((S)-2-(3,5-difluorophenyl)-1-(2-(methylthio)-6-(3-oxoisoindolin-5-yl)thiazolo[4,5-b]pyridin-5-yl)ethyl)acetamide] | 984
NC(=O)c1cc(-c2cc3sc(N4CCN(C5COC5)CC4)nc3nc2[C@H](Cc2cc(F)cc(F)c2)NC(=O)Cn2nc(C(F)(F)F)c3c2C(F)(F)[C@@H]2C[C@H]32)ccc1F [Compound 24, 5-(5-((S)-1-(2-((3bS,4aR)-5,5-difluoro-3-(trifluoromethyl)-3b,4,4a,5-tetrahydro-1H-cyclopropa[3,4]cyclopenta[1,2-c]pyrazol-1-yl)acetamido)-2-(3,5-difluorophenyl)ethyl)-2-(4-(oxetan-3-yl)piperazin-1-yl)thiazolo[4,5-b]pyridin-6-yl)-2-fluorobenzamide] | 32.7
NC(=O)c1cc(-c2cc3sc(N4CCN(c5cncnc5)CC4)nc3nc2[C@H](Cc2cc(F)cc(F)c2)NC(=O)Cn2nc(C(F)(F)F)c3c2C(F)(F)[C@@H]2C[C@H]32)ccc1F [Compound 25, 5-(5-((S)-1-(2-((3bS,4aR)-5,5-difluoro-3-(trifluoromethyl)-3b,4,4a,5-tetrahydro-1H-cyclopropa[3,4]cyclopenta[1,2-c]pyrazol-1-yl)acetamido)-2-(3,5-difluorophenyl)ethyl)-2-(4-(pyrimidin-5-yl)piperazin-1-yl)thiazolo[4,5-b]pyridin-6-yl)-2-fluorobenzamide] | 111
NC(=O)c1cc(-c2cc3sc(N4CCN(c5ccncc5)CC4)nc3nc2[C@H](Cc2cc(F)cc(F)c2)NC(=O)Cn2nc(C(F)(F)F)c3c2C(F)(F)[C@@H]2C[C@H]32)ccc1F [Compound 26, 5-(5-((S)-1-(2-((3bS,4aR)-5,5-difluoro-3-(trifluoromethyl)-3b,4,4a,5-tetrahydro-1H-cyclopropa[3,4]cyclopenta[1,2-c]pyrazol-1-yl)acetamido)-2-(3,5-difluorophenyl)ethyl)-2-(4-(pyridin-4-yl)piperazin-1-yl)thiazolo[4,5-b]pyridin-6-yl)-2-fluorobenzamide] | 114
NC(=O)c1cc(-c2cc3sc(N4C[C@@H]5C[C@H]4CN5C4COC4)nc3nc2[C@H](Cc2cc(F)cc(F)c2)NC(=O)Cn2nc(C(F)(F)F)c3c2C(F)(F)[C@@H]2C[C@H]32)ccc1F [Compound 27, 5-(5-((S)-1-(2-((3bS,4aR)-5,5-difluoro-3-(trifluoromethyl)-3b,4,4a,5-tetrahydro-1H-cyclopropa[3,4]cyclopenta[1,2-c]pyrazol-1-yl)acetamido)-2-(3,5-difluorophenyl)ethyl)-2-((1S,4S)-5-(oxetan-3-yl)-2,5-diazabicyclo[2.2.1]heptan-2-yl)thiazolo[4,5-b]pyridin-6-yl)-2-fluorobenzamide] | 52.3
NC(=O)c1cc(-c2cc3sc(N4CCN(c5ccc(-c6ncc[nH]6)cc5)CC4)nc3nc2[C@H](Cc2cc(F)cc(F)c2)NC(=O)Cn2nc(C(F)(F)F)c3c2C(F)(F)[C@@H]2C[C@H]32)ccc1F [Compound 28-1, 5-(2-(4-(4-(1H-imidazol-2-yl)phenyl)piperazin-1-yl)-5-((S)-1-(2-((3bS,4aR)-5,5-difluoro-3-(trifluoromethyl)-3b,4,4a,5-tetrahydro-1H-cyclopropa[3,4]cyclopenta[1,2-c]pyrazol-1-yl)acetamido)-2-(3,5-difluorophenyl)ethyl)thiazolo[4,5-b]pyridin-6-yl)-2-fluorobenzamide] | 300
C[Si](C)(C)CCn1ccnc1-c1ccc(N2CCN(c3nc4nc([C@H](Cc5cc(F)cc(F)c5)NC(=O)Cn5nc(C(F)(F)F)c6c5C(F)(F)[C@@H]5C[C@H]65)c(-c5ccc(F)c(C(N)=O)c5)cc4s3)CC2)cc1 [Compound 28-2, 5-(5-((S)-1-(2-((3bS,4aR)-5,5-difluoro-3-(trifluoromethyl)-3b,4,4a,5-tetrahydro-1H-cyclopropa[3,4]cyclopenta[1,2-c]pyrazol-1-yl)acetamido)-2-(3,5-difluorophenyl)ethyl)-2-(4-(4-(1-(2-(trimethylsilyl)ethyl)-1H-imidazol-2-yl)phenyl)piperazin-1-yl)thiazolo[4,5-b]pyridin-6-yl)-2-fluorobenzamide] | ≥ 53200
NC(=O)c1cc(-c2cc3sc(N4CCC5(CC4)CNC(=O)O5)nc3nc2[C@H](Cc2cc(F)cc(F)c2)NC(=O)Cn2nc(C(F)(F)F)c3c2C(F)(F)[C@@H]2C[C@H]32)ccc1F [Compound 29, 5-(5-((S)-1-(2-((3bS,4aR)-5,5-difluoro-3-(trifluoromethyl)-3b,4,4a,5-tetrahydro-1H-cyclopropa[3,4]cyclopenta[1,2-c]pyrazol-1-yl)acetamido)-2-(3,5-difluorophenyl)ethyl)-2-(2-oxo-1-oxa-3,8-diazaspiro[4.5]decan-8-yl)thiazolo[4,5-b]pyridin-6-yl)-2-fluorobenzamide] | 121
CC1CN(c2nc3nc([C@H](Cc4cc(F)cc(F)c4)NC(=O)Cn4nc(C(F)(F)F)c5c4C(F)(F)[C@@H]4C[C@H]54)c(-c4ccc(F)c(C(N)=O)c4)cc3s2)CC(C)N1C1COC1 (stereo partly drawn) [Compound 30, 5-(5-((S)-1-(2-((3bS,4aR)-5,5-difluoro-3-(trifluoromethyl)-3b,4,4a,5-tetrahydro-1H-cyclopropa[3,4]cyclopenta[1,2-c]pyrazol-1-yl)acetamido)-2-(3,5-difluorophenyl)ethyl)-2-(3,5-dimethyl-4-(oxetan-3-yl)piperazin-1-yl)thiazolo[4,5-b]pyridin-6-yl)-2-fluorobenzamide] | 47.3
NC(=O)c1cc(-c2cc3sc(N4CCn5cnnc5C4)nc3nc2[C@H](Cc2cc(F)cc(F)c2)NC(=O)Cn2nc(C(F)(F)F)c3c2C(F)(F)[C@@H]2C[C@H]32)ccc1F [Compound 31, 5-(5-((S)-1-(2-((3bS,4aR)-5,5-difluoro-3-(trifluoromethyl)-3b,4,4a,5-tetrahydro-1H-cyclopropa[3,4]cyclopenta[1,2-c]pyrazol-1-yl)acetamido)-2-(3,5-difluorophenyl)ethyl)-2-(5,6-dihydro-[1,2,4]triazolo[4,3-a]pyrazin-7(8H)-yl)thiazolo[4,5-b]pyridin-6-yl)-2-fluorobenzamide] | 466
CC1(O)CN(c2nc3nc([C@H](Cc4cc(F)cc(F)c4)NC(=O)Cn4nc(C(F)(F)F)c5c4C(F)(F)[C@@H]4C[C@H]54)c(-c4ccc(F)c(C(N)=O)c4)cc3s2)C1 [Compound 32, 5-(5-((S)-1-(2-((3bS,4aR)-5,5-difluoro-3-(trifluoromethyl)-3b,4,4a,5-tetrahydro-1H-cyclopropa[3,4]cyclopenta[1,2-c]pyrazol-1-yl)acetamido)-2-(3,5-difluorophenyl)ethyl)-2-(3-hydroxy-3-methylazetidin-1-yl)thiazolo[4,5-b]pyridin-6-yl)-2-fluorobenzamide] | 60.6
NC(=O)c1cc(-c2cc3sc(N4CCNC(=O)C4)nc3nc2[C@H](Cc2cc(F)cc(F)c2)NC(=O)Cn2nc(C(F)(F)F)c3c2C(F)(F)[C@@H]2C[C@H]32)ccc1F [Compound 33, 5-(5-((S)-1-(2-((3bS,4aR)-5,5-difluoro-3-(trifluoromethyl)-3b,4,4a,5-tetrahydro-1H-cyclopropa[3,4]cyclopenta[1,2-c]pyrazol-1-yl)acetamido)-2-(3,5-difluorophenyl)ethyl)-2-(3-oxopiperazin-1-yl)thiazolo[4,5-b]pyridin-6-yl)-2-fluorobenzamide] | 88.3
